Tests used:
Bacillus cereus [1] = test: Antibacterial activity against Bacillus cereus ATCC 7064 at 5 ug after 24 hrs by disk diffusion method; assay type: functional; details: ATCC 7064, 24 h, read-out: IZ
Pseudomonas aeruginosa [2] = test: Antibacterial activity against Pseudomonas aeruginosa ATCC 27853 at 5 ug after 24 hrs by disk diffusion method; assay type: functional; details: ATCC 27853, 24 h, read-out: IZ
Escherichia coli [3] = test: Antibacterial activity against Escherichia coli ATCC 11230 at 5 ug after 24 hrs by disk diffusion method; assay type: functional; details: ATCC 11230, 24 h, read-out: IZ
Staphylococcus aureus [4] = test: Antibacterial activity against Staphylococcus aureus ATCC 6538 at 5 ug after 24 hrs by disk diffusion method; assay type: functional; details: ATCC 6538, 24 h, read-out: IZ
Proteus vulgaris [5] = test: Antibacterial activity against Proteus vulgaris ATCC 8427 at 5 ug after 24 hrs by disk diffusion method; assay type: functional; details: ATCC 8427, 24 h, read-out: IZ
Micrococcus luteus [6] = test: Antibacterial activity against Micrococcus luteus La 2971 at 5 ug by disk diffusion method; assay type: functional; details: read-out: IZ
[7] = system: Mycolicibacterium smegmatis; test: Antibacterial activity against Mycobacterium smegmatis CCM 2067 at 5 ug after 24 hrs by disk diffusion method; assay type: functional; details: CCM 2067, 24 h, read-out: IZ
Listeria monocytogenes [8] = test: Antibacterial activity against Listeria monocytogenes ATCC 15313 at 5 ug after 24 hrs by disk diffusion method; assay type: functional; details: ATCC 15313, 24 h, read-out: IZ
Klebsiella pneumoniae [9] = test: Antibacterial activity against Klebsiella pneumoniae UC57 at 5 ug after 24 hrs by disk diffusion method; assay type: functional; details: read-out: IZ
Proteus vulgaris [10] = test: Antibacterial activity against Proteus vulgaris ATCC 8427 at 10 ug after 24 hrs by disk diffusion method; assay type: functional; details: ATCC 8427, 24 h, read-out: IZ
[11] = system: Mycolicibacterium smegmatis; test: Antibacterial activity against Mycobacterium smegmatis CCM 2067 at 10 ug after 24 hrs by disk diffusion method; assay type: functional; details: CCM 2067, 24 h, read-out: IZ
Micrococcus luteus [12] = test: Antibacterial activity against Micrococcus luteus La 2971 at 10 ug by disk diffusion method; assay type: functional; details: read-out: IZ
Listeria monocytogenes [13] = test: Antibacterial activity against Listeria monocytogenes ATCC 15313 at 10 ug after 24 hrs by disk diffusion method; assay type: functional; details: ATCC 15313, 24 h, read-out: IZ
Klebsiella pneumoniae [14] = test: Antibacterial activity against Klebsiella pneumoniae UC57 at 10 ug after 24 hrs by disk diffusion method; assay type: functional; details: read-out: IZ
Escherichia coli [15] = test: Antibacterial activity against Escherichia coli ATCC 11230 at 10 ug after 24 hrs by disk diffusion method; assay type: functional; details: ATCC 11230, 24 h, read-out: IZ
Staphylococcus aureus [16] = test: Antibacterial activity against Staphylococcus aureus ATCC 6538 at 10 ug after 24 hrs by disk diffusion method; assay type: functional; details: ATCC 6538, 24 h, read-out: IZ
Bacillus cereus [17] = test: Antibacterial activity against Bacillus cereus ATCC 7064 at 10 ug after 24 hrs by disk diffusion method; assay type: functional; details: ATCC 7064, 24 h, read-out: IZ
Pseudomonas aeruginosa [18] = test: Antibacterial activity against Pseudomonas aeruginosa ATCC 27853 at 10 ug after 24 hrs by disk diffusion method; assay type: functional; details: ATCC 27853, 24 h, read-out: IZ
Micrococcus luteus [19] = test: Antibacterial activity against Micrococcus luteus La 2971 at 30 ug by disk diffusion method; assay type: functional; details: read-out: IZ
Pseudomonas aeruginosa [20] = test: Antibacterial activity against Pseudomonas aeruginosa ATCC 27853 at 30 ug after 24 hrs by disk diffusion method; assay type: functional; details: ATCC 27853, 24 h, read-out: IZ
Staphylococcus aureus [21] = test: Antibacterial activity against Staphylococcus aureus ATCC 6538 at 30 ug after 24 hrs by disk diffusion method; assay type: functional; details: ATCC 6538, 24 h, read-out: IZ
Proteus vulgaris [22] = test: Antibacterial activity against Proteus vulgaris ATCC 8427 at 30 ug after 24 hrs by disk diffusion method; assay type: functional; details: ATCC 8427, 24 h, read-out: IZ
[23] = system: Mycolicibacterium smegmatis; test: Antibacterial activity against Mycobacterium smegmatis CCM 2067 at 30 ug after 24 hrs by disk diffusion method; assay type: functional; details: CCM 2067, 24 h, read-out: IZ
Klebsiella pneumoniae [24] = test: Antibacterial activity against Klebsiella pneumoniae UC57 at 30 ug after 24 hrs by disk diffusion method; assay type: functional; details: read-out: IZ
Bacillus cereus [25] = test: Antibacterial activity against Bacillus cereus ATCC 7064 at 30 ug after 24 hrs by disk diffusion method; assay type: functional; details: ATCC 7064, 24 h, read-out: IZ
Listeria monocytogenes [26] = test: Antibacterial activity against Listeria monocytogenes ATCC 15313 at 30 ug after 24 hrs by disk diffusion method; assay type: functional; details: ATCC 15313, 24 h, read-out: IZ
Escherichia coli [27] = test: Antibacterial activity against Escherichia coli ATCC 11230 at 30 ug after 24 hrs by disk diffusion method; assay type: functional; details: ATCC 11230, 24 h, read-out: IZ
Pseudomonas aeruginosa [28] = test: Antibacterial activity against Pseudomonas aeruginosa ATCC 27853 after 24 hrs by dilution method; assay type: functional
[29] = system: Mycolicibacterium smegmatis; test: Antibacterial activity against Mycobacterium smegmatis CCM 2067 after 24 hrs by dilution method; assay type: functional
Escherichia coli [30] = test: Antibacterial activity against Escherichia coli ATCC 11230 after 24 hrs by dilution method; assay type: functional
Staphylococcus aureus [31] = test: Antibacterial activity against Staphylococcus aureus ATCC 6538 after 24 hrs by dilution method; assay type: functional
Micrococcus luteus [32] = test: Antibacterial activity against Micrococcus luteus La 2971 after 24 hrs by dilution method; assay type: functional
Proteus vulgaris [33] = test: Antibacterial activity against Proteus vulgaris ATCC 8427 by after 24 hrs dilution method; assay type: functional
Klebsiella pneumoniae [34] = test: Antibacterial activity against Klebsiella pneumoniae UC57 after 24 hrs by dilution method; assay type: functional
Bacillus cereus [35] = test: Antibacterial activity against Bacillus cereus ATCC 7064 after 24 hrs by dilution method; assay type: functional
Listeria monocytogenes [36] = test: Antibacterial activity against Listeria monocytogenes ATCC 15313 after 24 hrs by dilution method; assay type: functional
[37] = system: Hanseniaspora guilliermondii; test: Antifungal activity against Hanseniaspora guilliermondii DSM 3432 after 48 hrs by dilution method; assay type: functional
[38] = system: Hanseniaspora guilliermondii; test: Antifungal activity against Hanseniaspora guilliermondii DSM 3432 at 100 ug after 72 hrs by disk diffusion method; assay type: functional, organism-based
Rhodotorula mucilaginosa [39] = test: Antifungal activity against Rhodotorula rubra DSM 70403 at 100 ug after 72 hrs by disk diffusion method; assay type: functional, organism-based
Rhodotorula mucilaginosa [40] = test: Antifungal activity against Rhodotorula rubra DSM 70403 after 48 hrs by dilution method; assay type: functional
Debaryomyces hansenii [41] = test: Antifungal activity against Debaryomyces hansenii DSM 70238 after 48 hrs by dilution method; assay type: functional
Debaryomyces hansenii [42] = test: Antifungal activity against Debaryomyces hansenii DSM 70238 at 100 ug after 72 hrs by disk diffusion method; assay type: functional, organism-based
Candida albicans = test: Antifungal activity against Candida albicans ATCC 10231 after 48 hrs by dilution method; assay type: functional
Kluyveromyces marxianus [43] = test: Antifungal activity against Kluyveromyces fragilis NRRL 2415 at 100 ug after 72 hrs by disk diffusion method; assay type: functional, organism-based
Kluyveromyces marxianus [44] = test: Antifungal activity against Kluyveromyces fragilis NRRL 2415 after 48 hrs by dilution method; assay type: functional

## CC1COc2c(N3CCN(C)CC3)c(F)cc3c(=O)c(C(=O)O)cn1c23 (centres undefined) [OFLOXACIN]
Bacillus cereus [1]
  zone of inhibition at 5 µg/disc: 30 mm
Pseudomonas aeruginosa [2]
  zone of inhibition at 5 µg/disc: 44 mm
Escherichia coli [3]
  zone of inhibition at 5 µg/disc: 30 mm
Staphylococcus aureus [4]
  zone of inhibition at 5 µg/disc: 24 mm
Proteus vulgaris [5]
  zone of inhibition at 5 µg/disc: 28 mm
Micrococcus luteus [6]
  zone of inhibition at 5 µg/disc: 28 mm
[7]
  zone of inhibition at 5 µg/disc: 32 mm
Listeria monocytogenes [8]
  zone of inhibition at 5 µg/disc: 30 mm
Klebsiella pneumoniae [9]
  zone of inhibition at 5 µg/disc: 28 mm

## CC1(C)S[C@@H]2[C@H](NC(=O)Cc3ccccc3)C(=O)N2[C@H]1C(=O)O [PENICILLIN G]
Proteus vulgaris [10]
  zone of inhibition at 10 µg/disc: 10 mm
[11]
  zone of inhibition at 10 µg/disc: 15 mm
Micrococcus luteus [12]
  zone of inhibition at 10 µg/disc: 36 mm
Listeria monocytogenes [13]
  zone of inhibition at 10 µg/disc: 10 mm
Klebsiella pneumoniae [14]
  zone of inhibition at 10 µg/disc: 18 mm
Escherichia coli [15]
  zone of inhibition at 10 µg/disc: 18 mm
Staphylococcus aureus [16]
  zone of inhibition at 10 µg/disc: 13 mm
Bacillus cereus [17]
  zone of inhibition at 10 µg/disc: 14 mm
Pseudomonas aeruginosa [18]
  zone of inhibition at 10 µg/disc: 8 mm

## CN(C)[C@@H]1C(O)=C(C(N)=O)C(=O)[C@@]2(O)C(O)=C3C(=O)c4c(O)cccc4[C@@](C)(O)[C@H]3C[C@@H]12 [TETRACYCLINE]
Micrococcus luteus [19]
  zone of inhibition at 30 µg/disc: 2 mm
Pseudomonas aeruginosa [20]
  zone of inhibition at 30 µg/disc: 34 mm
Staphylococcus aureus [21]
  zone of inhibition at 30 µg/disc: 26 mm
Proteus vulgaris [22]
  zone of inhibition at 30 µg/disc: 26 mm
[23]
  zone of inhibition at 30 µg/disc: 24 mm
Klebsiella pneumoniae [24]
  zone of inhibition at 30 µg/disc: 30 mm
Bacillus cereus [25]
  zone of inhibition at 30 µg/disc: 25 mm
Listeria monocytogenes [26]
  zone of inhibition at 30 µg/disc: 28 mm
Escherichia coli [27]
  zone of inhibition at 30 µg/disc: 28 mm

## CN[C@H](CC(C)C)C(=O)N[C@H]1C(=O)N[C@@H](CC(N)=O)C(=O)N[C@H]2C(=O)N[C@H]3C(=O)N[C@H](C(=O)N[C@H](C(=O)O)c4cc(O)cc(O)c4-c4cc3ccc4O)[C@H](O)c3ccc(c(Cl)c3)Oc3cc2cc(c3O[C@@H]2O[C@H](CO)[C@@H](O)[C@H](O)[C@H]2O[C@H]2C[C@](C)(N)[C@H](O)[C@H](C)O2)Oc2ccc(cc2Cl)[C@H]1O [VANCOMYCIN]
Micrococcus luteus [19]
  zone of inhibition at 30 µg/disc: 34 mm
Pseudomonas aeruginosa [20]
  zone of inhibition at 30 µg/disc: 10 mm
Staphylococcus aureus [21]
  zone of inhibition at 30 µg/disc: 13 mm
Proteus vulgaris [22]
  zone of inhibition at 30 µg/disc: 20 mm
[23]
  zone of inhibition at 30 µg/disc: 20 mm
Klebsiella pneumoniae [24]
  zone of inhibition at 30 µg/disc: 22 mm
Bacillus cereus [25]
  zone of inhibition at 30 µg/disc: 18 mm
Listeria monocytogenes [26]
  zone of inhibition at 30 µg/disc: 26 mm
Escherichia coli [27]
  zone of inhibition at 30 µg/disc: 22 mm

## GENTAMICIN
Pseudomonas aeruginosa [28]
  MIC: 6.25 µg/mL
[29]
  MIC: 12.5 µg/mL
Escherichia coli [30]
  MIC: 6.25 µg/mL
Staphylococcus aureus [31]
  MIC: 25 µg/mL
Micrococcus luteus [32]
  MIC: 25 µg/mL
Proteus vulgaris [33]
  MIC: 6.25 µg/mL
Klebsiella pneumoniae [34]
  MIC: 6.25 µg/mL
Bacillus cereus [35]
  MIC: 6.25 µg/mL
Listeria monocytogenes [36]
  MIC: 12.5 µg/mL

## NYSTATIN
[37]
  MIC: 3.12 µg/mL
[38]
  inhibition zone (IZ): 21 mm
Rhodotorula mucilaginosa [39]
  inhibition zone (IZ): 18 mm
Rhodotorula mucilaginosa [40]
  MIC: 6.25 µg/mL
Debaryomyces hansenii [41]
  MIC: 12.5 µg/mL
Debaryomyces hansenii [42]
  inhibition zone (IZ): 16 mm
Candida albicans
  MIC: 3.12 µg/mL
Kluyveromyces marxianus [43]
  inhibition zone (IZ): 18 mm
Kluyveromyces marxianus [44]
  MIC: 6.25 µg/mL
